Measured values: patent US8105745B2, “Radiation crosslinker” (National University of Singapore, priority 2005, dated 2012)

Assays:
solubility in solvents = assay type: physicochemical
[1] = stability of the azide in acidified aqueous MeOD (19F NMR, FTIR); assay type: physicochemical
Protocol: The azide compounds according to the present invention are stable even in strongly acidic aqueous environment. […] Its ^19F NMR spectrum is acquired within 5 min and again after 21 days. […] This was further confirmed through FTIR analysis of the solid recovered by evaporation after the ^19F NMR experiment. No change in the azide stretching intensity (νasN3, 2129 cm^−1) normalized against benzene (νring, 1546 cm^−1) was observed.

| Molecule | solubility in H2O (solubility in solvents) | change of 19F NMR spectrum ([1]; 16 mg mL^-1 in acidified deuterated MeOD containing 2.4 M HCl and 6.5 M H2O, within 5 min vs after 21 days) | change in azide stretching intensity (FTIR, 2129 cm^-1) normalized against benzene ring band ([1]; solid recovered by evaporation after the 19F NMR experiment (21 days in acidic aqueous MeOD)) |
| --- | --- | --- | --- |
| C[N+](C)(CCCNC(=O)c1c(F)c(F)c(N=[N+]=[N-])c(F)c1F)CCCNC(=O)c1c(F)c(F)c(N=[N+]=[N-])c(F)c1F [V] | soluble in H2O | – | – |
| N,N-dimethyl-N,N-dipropylene bis(4-azido-2,3,5,6-tetrafluorobenzamide) ammonium iodide | – | No observable change | No change |
